Experimental data from patent US20090247520A1, “INHIBITORS OF ANTIGEN RECEPTOR-INDUCED NF-kappa B ACTIVATION” (The Burnham Institute for Medical Research, priority 2008, published 2009).

Experiments:
[1] = tested on: retinoic acid-induced NF-κB activity; test: NF-κB reporter in HEK293-NF-κB-luc cells treated with all-trans-retinoic acid; assay type: cell-based; conditions: 16 μM retinoic acid; CID-2858522 4 μM, IKK inhibitor 10 μM
Experimental: FIGS. 3 (A-F) HEK293-NF-κB-luc cells were pretreated with CID-2858522 (4 μM), IKK inhibitor, BMS-335541 (10 μM), or PKC inhibitor, Bisindolylmaleimide I (1 μM) for 2 hrs and then transfected with plasmids encoding CD4/TLR4 (A), CD40 (B), NOD1 (C), NOD2 (D), cIAP2-MALT1 (E), or XIAP and TAB (F), or pcDNA as control (compounds were not removed). After 48 hrs, luciferase activity was measured expressing data as fold increase relative to unstimulated cells (mean±SD; n=3). (G-H) HEK293-NF-κB-luc cells were pretreated with CID-2858522 (4 μM), or IKK inhibitor, BMS-335541 (10 μM) for 2 hrs and then cultured with 2 μM doxorubicin (G) or 16 μM retinoic acid (H). After 48 hrs, luciferase activity was measured as above.
Counter Screening and Secondary Assays. To counter-screen for inhibitors of the TNF pathway, HEK293-NFκB-Luc cells were seeded at 10^5 cells per well in 90 μL medium in white 96-well plates (Greiner Bio-One) and cultured overnight, before adding compounds (5 μL in medium) to cells. […] Luciferase activity was measured using Britelite kit (Perkin Elmer). […] Cells were cultured in medium containing CID-2858522 or other compounds and luciferase activity was measured 48 h later. […] Reactions were then initiated by addition of 50 μL 160 nM ATP (Sigma) in PBS and luciferase activity was measured 2 h later using a luminometer (LJL Biosystems, Sunnyvale, Calif.).

[2] = molecular target: T1, IKK-beta (Homo sapiens, UniProt O14920); test: In vitro kinase assay IKK-beta (HTScan kit); assay type: biochemical; conditions: CID-2858522 up to 8 μM; STS 0.5 μM; IKK inhibitor 10 μM
T1 construct: purchased Cell Signaling, Danvers, Mass
T1 sequence (O14920 whole entry): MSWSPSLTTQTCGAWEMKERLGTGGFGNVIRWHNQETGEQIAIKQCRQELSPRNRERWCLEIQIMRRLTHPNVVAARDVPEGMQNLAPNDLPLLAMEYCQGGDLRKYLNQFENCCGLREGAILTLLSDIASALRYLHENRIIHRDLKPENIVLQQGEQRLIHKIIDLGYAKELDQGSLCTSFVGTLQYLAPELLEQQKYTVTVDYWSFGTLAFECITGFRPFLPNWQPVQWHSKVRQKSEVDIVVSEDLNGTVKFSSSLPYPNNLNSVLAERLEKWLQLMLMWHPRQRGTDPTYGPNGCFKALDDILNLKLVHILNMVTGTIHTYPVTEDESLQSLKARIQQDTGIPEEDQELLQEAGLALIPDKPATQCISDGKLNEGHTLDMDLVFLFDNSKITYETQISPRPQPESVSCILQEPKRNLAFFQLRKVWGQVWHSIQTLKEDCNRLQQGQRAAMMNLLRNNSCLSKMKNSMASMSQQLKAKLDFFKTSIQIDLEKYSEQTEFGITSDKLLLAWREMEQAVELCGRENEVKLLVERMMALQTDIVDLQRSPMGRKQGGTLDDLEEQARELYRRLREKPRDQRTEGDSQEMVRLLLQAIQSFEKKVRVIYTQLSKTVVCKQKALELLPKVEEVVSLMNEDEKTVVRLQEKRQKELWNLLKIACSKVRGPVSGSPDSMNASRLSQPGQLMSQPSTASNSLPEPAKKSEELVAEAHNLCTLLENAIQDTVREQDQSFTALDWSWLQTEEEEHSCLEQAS
Experimental: (§1) CID-2858522 (8 μM) were tested in in vitro IKK beta (A), PKC beta […] or PKC theta (C) kinase assays using kits. STS (0.5 μM), IKK inhibitor (10 μM) and PKC inhibitor (1 μM) were used as positive controls.
(§2) In Vitro Kinase Assays. PKC-beta, PKC-theta and IKK-beta in vitro kinase assays were performed using the HTScan Kinase Assay Kit (Cell Signaling, Danvers, Mass.) according to manufacturer's protocols. A panel of >300 kinases was screened by Ambit, Inc.

[3] = molecular target: T2, PKC-beta (Homo sapiens, UniProt P05771); test: In vitro kinase assay PKC-beta (HTScan kit); assay type: biochemical; conditions: CID-2858522 up to 8 μM; STS 0.5 μM; PKC inhibitor 1 μM
T2 construct: purchased Cell Signaling, Danvers, Mass
T2 sequence (P05771 whole entry): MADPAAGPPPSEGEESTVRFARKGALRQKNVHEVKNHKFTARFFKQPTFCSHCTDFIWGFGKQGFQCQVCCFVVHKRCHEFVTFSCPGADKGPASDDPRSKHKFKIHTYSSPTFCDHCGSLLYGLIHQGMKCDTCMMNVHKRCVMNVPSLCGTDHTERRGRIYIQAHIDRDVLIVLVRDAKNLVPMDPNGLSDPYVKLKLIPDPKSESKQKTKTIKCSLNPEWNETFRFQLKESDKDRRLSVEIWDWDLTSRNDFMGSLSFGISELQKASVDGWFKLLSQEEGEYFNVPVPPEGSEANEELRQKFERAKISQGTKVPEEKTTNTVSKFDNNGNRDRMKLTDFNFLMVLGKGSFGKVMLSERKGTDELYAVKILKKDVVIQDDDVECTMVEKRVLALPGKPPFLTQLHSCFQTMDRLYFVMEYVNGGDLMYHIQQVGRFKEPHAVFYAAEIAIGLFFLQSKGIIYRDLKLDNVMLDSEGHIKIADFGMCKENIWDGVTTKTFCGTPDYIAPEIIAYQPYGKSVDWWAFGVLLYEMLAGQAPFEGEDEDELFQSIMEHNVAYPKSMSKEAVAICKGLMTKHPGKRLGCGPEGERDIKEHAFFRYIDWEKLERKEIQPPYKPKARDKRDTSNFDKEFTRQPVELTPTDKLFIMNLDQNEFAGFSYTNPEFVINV
Experimental: as §1, §2

[4] = tested on: MALT1-caspase-8 interaction; test: PMA-induced MALT1-caspase-8 interaction in HEK293 cells; assay type: cell-based; conditions: HEK293 over-expressing Flag-MALT1 and Caspase-8, PMA
From the text: Caspase-8 plays an essential role in antigen receptor-mediated NF-κB activation. It was recently reported that MALT1 interacts with Caspase-8 and activates this protease upon antigen receptor activation. […] We then examined if CID-2858522 affected the pathway at this point. PMA induced significant MALT1-caspase-8 interaction in HEK293 cells over-expressing Flag-MALT1 and Caspase-8. […] The caspase-8 p43/41 processing intermediate was generated in HEK293 cells after PMA/Ion treatment. […] We then assessed the effects of CID-2858522 on PMA-induced proteolytic processing of c-FLIP, a Caspase-8-mediated event recently shown to be required for antigen receptor mediated NF-κB activation.

[5] = tested on: c-FLIP processing; test: PMA/Ionomycin-induced c-FLIP processing in HEK293 cells (immunoblot); assay type: cell-based; conditions: CID-2858522 4 μM, PKC inhibitor 1 μM
Experimental: FIG. 7. CID-285852 inhibits IKKβ phosphorylation induced by PKC activators. (A) HEK293 cells were cultured in 0.5% FBS medium for 24 h and then treated with CID-2858522 (4 μM) or PKC inhibitor, Bisindolylmaleimide I (1 μM) for 2 hrs followed by PMA/Ionomycin (10 ng/mL; 5 ng/mL) for 2 h. Cell lysates were subjected to immunoprecipitation using anti-CARMA1 antibody and analyzed by immunoblotting with anti-phospho-CARMA1 antibody or anti-CARMA1 antibody. (B-E) HEK293 cells were transfected with plasmids encoding myc-CARMA1 in combination with plasmids encoding various other proteins including Caspase-8 (cys287ala) (B), HA-IKK-γ (C), HA-TAK1 (D), and TRAF6 (E). […] Cell lysates were immunoprecipated using anti-myc antibody and analyzed by immunoblotting using anti-Caspase8 (B), anti-HA (C,D), or anti-TRAF6 (E) antibodies. […] Cell lysates were normalized for protein content and analyzed by immunoblotting using anti-FLIP and anti-alpha-tubulin antibodies. […] Cell lysates were immunoprecipitated using anti-IKK-β and analyzed by immunoblotting using anti-phospho-IKK-β antibody or anti-IKK-β antibody (as loading control). […]
Caspase-8 plays an essential role in antigen receptor-mediated NF-κB activation. […] We then assessed the effects of CID-2858522 on PMA-induced proteolytic processing of c-FLIP, a Caspase-8-mediated event recently shown to be required for antigen receptor mediated NF-κB activation.

Structure (SMILES)	suppression of retinoic acid-induced NF-κB activity [1]	inhibition of IKK-beta kinase activity [2]	inhibition of PKC-beta kinase activity [3]	inhibition of MALT1-caspase-8 interaction [4]	inhibition of c-FLIP processing [5]
Cc1ccc2nc(NCCN)c3ncc(C)n3c2c1 [BMS-345541, reference compound]	significantly suppressed	potent inhibition			
CN(C)CCCn1cc(C2=C(c3c[nH]c4ccccc34)C(=O)NC2=O)c2ccccc21 [Bisindolylmaleimide I, reference compound]			potent inhibition	inhibited	completely inhibited
Cc1cc2nc(NCCCO)n(CC(=O)c3cc(C(C)(C)C)c(O)c(C(C)(C)C)c3)c2cc1C [Compound 1, 2-(2-(3-Hydroxypropylamino)-5,6-dimethyl-1H-benzo[d]imidazol-1-yl)-1-(3,5-di-tert-butyl-4-hydroxyphenyl)ethanone]	did not inhibit	failed to suppress	failed to suppress	not by CID-2858522	not affected
